Target: Bet BRD4 full length bromo-domain protein (Homo sapiens, UniProt O60885)
Assay: Bet bromodomain TR-FRET assay (displacement of acetyl histone peptide)
Assay type: binding
Details: Bet BRD4 full length bromodomain protein, 300 nM acetyl histone peptide substrate, read-out: IC50

SMILES	IC50
O=C1Nc2c(NC3CCCCC3)cc(NS(=O)(=O)c3ccc(F)cc3F)cc2C12CCC2 [Compound 20, N-(7′-(cyclohexylamino)-2′-oxospiro[cyclobutane-1,3′-indolin]-5′-yl)-2,4-difluorobenzenesulfonamide]	> 1000 nM
CCC(=O)N1CCC(Nc2cc(NS(=O)(=O)c3ccc(F)cc3F)cc3c2NC(=O)C32CCC2)CC1 [Compound 21, 2,4-Difluoro-N-(2′-oxo-7′-((1-propionylpiperidin-4-yl)amino)spiro[cyclobutane-1,3′-indolin]-5′-yl)benzenesulfonamide]	< 600 nM
CCOC(=O)N1CCC(Nc2cc(NS(=O)(=O)c3ccc(F)cc3F)cc3c2NC(=O)C32CCC2)CC1 [Compound 22, Ethyl 4-((5′-(2,4-difluorophenylsulfonamido)-2′-oxospiro [cyclobutane-1,3′-indolin]-7′-yl)amino)piperidine-1-carboxylate]	600 to 1000 nM
O=C1Nc2c(NCc3ccncc3)cc(NS(=O)(=O)c3ccc(F)cc3F)cc2C12CCC2 [Compound 23, 2,4-Difluoro-N-(2′-oxo-7′-((pyridin-4-ylmethyl)amino)spiro[cyclobutane-1,3′-indolin]-5′-yl)benzenesulfonamide]	< 600 nM
CCN1CCC(Nc2cc(NS(=O)(=O)c3ccc(F)cc3F)cc3c2NC(=O)C32CCC2)CC1 [Compound 24, N-(7′-((1-ethylpiperidin-4-yl)amino)-2′-oxospiro[cyclobutane-1,3′-indolin]-5′-yl)-2,4-difluorobenzenesulfonamide]	< 600 nM
O=C1Nc2c(NCc3cnc[nH]3)cc(NS(=O)(=O)c3ccc(F)cc3F)cc2C12CCC2 [Compound 25, N-(7′-(((1H-imidazol-5-yl)methyl)amino)-2′-oxospiro [cyclo butane-1,3′-indolin]-5′-yl)-2,4-difluorobenzene sulfonamide]	< 600 nM
O=C1Nc2c(NC3CCc4cc(F)ccc43)cc(NS(=O)(=O)c3ccc(F)cc3F)cc2C12CCC2 (stereo not drawn) [Compound 26, 2,4-Difluoro-N-(7′-((5-fluoro-2,3-dihydro-1H-inden-1-yl)amino)-2′-oxospiro[cyclobutane-1,3′-indolin]-5′-yl)benzenesulfonamide]	> 1000 nM
O=C1Nc2c(NCc3cccnc3)cc(NS(=O)(=O)c3ccc(F)cc3F)cc2C12CCC2 [Compound 27, 2,4-difluoro-N-(2′-oxo-7′-((pyridin-3-ylmethyl)amino)spiro[cyclobutane-1,3′-indolin]-5′-yl)benzenesulfonamide]	< 600 nM
CN1CCC(CCNc2cc(NS(=O)(=O)c3ccc(F)cc3F)cc3c2NC(=O)C32CCC2)CC1 [Compound 28, 2,4-Difluoro-N-(7′-((2-(1-methylpiperidin-4-yl)ethyl)amino)-2′-oxospiro[cyclobutane-1,3′-indolin]-5′-yl)benzenesulfonamide]	< 600 nM
CCCN1CCC(Nc2cc(NS(=O)(=O)c3ccc(F)cc3F)cc3c2NC(=O)C32CCC2)CC1 [Compound 29, 2,4-Difluoro-N-(2′-oxo-7′-((1-propylpiperidin-4-yl)amino)spiro[cyclobutane-1,3′-indolin]-5′-yl)benzenesulfonamide]	< 600 nM
Cc1nc(CNc2cc(NS(=O)(=O)c3ccc(F)cc3F)cc3c2NC(=O)C32CCC2)c[nH]1 [Compound 30, 2,4-Difluoro-N-(7′-(((2-methyl-1H-imidazol-4-yl)methyl)amino)-2′-oxospiro[cyclobutane-1,3′-indolin]-5′-yl)benzenesulfonamide]	< 600 nM
Cn1cnc(CNc2cc(NS(=O)(=O)c3ccc(F)cc3F)cc3c2NC(=O)C32CCC2)c1 [Compound 31, 2,4-Difluoro-N-(7′-(((1-methyl-1H-imidazol-4-yl)methyl)amino)-2′-oxospiro[cyclobutane-1,3′-indolin]-5′-yl)benzenesulfonamide]	< 600 nM
CN1CCC(CNc2cc(NS(=O)(=O)c3ccc(F)cc3F)cc3c2NC(=O)C32CCC2)CC1 [Compound 32, 2,4-Difluoro-N-(7′-(((1-methylpiperidin-4-yl)methyl)amino)-2′-oxospiro[cyclobutane-1,3′-indolin]-5′-yl)benzenesulfonamide]	< 600 nM
O=C1CCC(Nc2cc(NS(=O)(=O)c3ccc(F)cc3F)cc3c2NC(=O)C32CCC2)CN1 (stereo not drawn) [Compound 33, 2,4-Difluoro-N-(2′-oxo-7′-((6-oxopiperidin-3-yl)amino)spiro[cyclobutane-1,3′-indolin]-5′-yl)benzenesulfonamide]	< 600 nM
CC1(C)CN(Cc2ccccc2)CCC1Nc1cc(NS(=O)(=O)c2ccc(F)cc2F)cc2c1NC(=O)C21CCC1 (stereo not drawn) [Compound 36, N-(7′-((1-benzyl-3,3-dimethylpiperidin-4-yl)amino)-2′-oxospiro[cyclobutane-1,3′-indolin]-5′-yl)-2,4-difluorobenzenesulfonamide]	600 to 1000 nM
CC(C)(C)OC(=O)N1CCC(Nc2cc(NS(=O)(=O)c3ccc(F)cc3F)cc3c2NC(=O)C32CCC2)C(F)C1 (stereo not drawn) [Compound 37, tert-Butyl 4-((5′-(2,4-difluorophenylsulfonamido)-2′-oxospiro[cyclobutane-1,3′-indolin]-7′-yl)amino)-3-fluoro piperidine-1-carboxylate]	> 1000 nM
COc1ccccc1S(=O)(=O)Nc1cc(NC2CCCN(C)C2)c2c(c1)C1(CCC1)C(=O)N2 (stereo not drawn) [Compound 38, 2-Methoxy-N-(7′-((1-methylpiperidin-3-yl)amino)-2′-oxospiro[cyclobutane-1,3′-indolin]-5′-yl)benzenesulfonamide]	< 600 nM

SMILES	IC50
COc1ccccc1S(=O)(=O)Nc1cc(NC2CCN(C)CC2)c2c(c1)C1(CCC1)C(=O)N2 [Compound 39, 2-Methoxy-N-(7′-((1-methylpiperidin-4-yl)amino)-2′-oxospiro[cyclobutane-1,3′-indolin]-5′-yl)benzenesulfonamide]	< 600 nM
COC(=O)c1cc(NS(=O)(=O)c2ccc(F)cc2F)cc2c1NC(=O)C21CCC1 [Compound 41, Methyl 5′-((2,4-difluorophenyl)sulfonamido)-2′-oxospiro[cyclobutane-1,3′-indoline]-7′-carboxylate]	< 600 nM
O=C(O)c1cc(NS(=O)(=O)c2ccc(F)cc2F)cc2c1NC(=O)C21CCC1 [Compound 42, 5′-((2,4-difluorophenyl)sulfonamido)-2′-oxospiro[cyclobutane-1,3′-indoline]-7′-carboxylic acid]	600 to 1000 nM
CN1CCC(C(=O)Nc2cc(NS(=O)(=O)c3ccc(F)cc3F)cc3c2NC(=O)C32CCC2)CC1 [Compound 43, N-(5′-((2,4-difluorophenyl)sulfonamido)-2′-oxospiro[cyclobutane-1,3′-indolin]-yl)-1-methylpiperidine-4-carboxamide]	600 to 1000 nM
O=C(Nc1cc(NS(=O)(=O)c2ccc(F)cc2F)cc2c1NC(=O)C21CCC1)c1cccnc1 [Compound 44, N-(5′-(2,4-Difluorophenylsulfonamido)-2′-oxospiro[cyclobutane-1,3′-indolin]-7′-yl)nicotinamide]	> 1000 nM
O=C(Nc1cc(NS(=O)(=O)c2ccc(F)cc2F)cc2c1NC(=O)C21CCC1)c1ccncc1 [Compound 45, N-(5′-(2,4-Difluorophenylsulfonamido)-2′-oxospiro[cyclobutane-1,3′-indolin]-7′-yl)isonicotinamide]	> 1000 nM
O=C(Nc1cc(NS(=O)(=O)c2ccc(F)cc2F)cc2c1NC(=O)C21CCC1)C1CCOCC1 [Compound 46, N-(5′-(2,4-Difluorophenylsulfonamido)-2′-oxospiro[cyclobutane-1,3′-indolin]-7′-yl)tetrahydro-2H-pyran-4-carboxamide]	> 1000 nM
CN1CCN(C(=O)c2cc(NS(=O)(=O)c3ccc(F)cc3F)cc3c2NC(=O)C32CCC2)CC1 [Compound 47, 2,4-Difluoro-N-(7′-(4-methylpiperazine-1-carbonyl)-2′-oxospiro[cyclobutane-1,3′-indolin]-5′-yl)benzenesulfonamide]	> 1000 nM
O=C(c1cc(NS(=O)(=O)c2ccc(F)cc2F)cc2c1NC(=O)C21CCC1)N1CCOCC1 [Compound 48, 2,4-Difluoro-N-(7′-(morpholine-4-carbonyl)-2′-oxospiro [cyclobutane-1,3′-indolin]-5′-yl)benzenesulfonamide]	> 1000 nM
O=C(Nc1ccccn1)c1cc(NS(=O)(=O)c2ccc(F)cc2F)cc2c1NC(=O)C21CCC1 [Compound 49, 5′-(2,4-Difluorophenylsulfonamido)-2′-oxo-N-(pyridin-2-yl)spiro[cyclobutane-1,3′-indoline]-7′-carboxamide]	600 to 1000 nM
O=C(NC1CCOCC1)c1cc(NS(=O)(=O)c2ccc(F)cc2F)cc2c1NC(=O)C21CCC1 [Compound 50, 5′-(2,4-Difluorophenylsulfonamido)-2′-oxo-N-(tetrahydro-2H-pyran-4-yl)spiro[cyclobutane-1,3′-indoline]-7′-carboxamide]	< 600 nM
O=C(Nc1cccnc1)c1cc(NS(=O)(=O)c2ccc(F)cc2F)cc2c1NC(=O)C21CCC1 [Compound 51, 5′-(2,4-Difluorophenylsulfonamido)-2′-oxo-N-(pyridin-3-yl)spiro[cyclobutane-1,3′-indoline]-7′-carboxamide]	600 to 1000 nM
CN1CCC(NC(=O)c2cc(NS(=O)(=O)c3ccc(F)cc3F)cc3c2NC(=O)C32CCC2)C1 (stereo not drawn) [Compound 52, 5′-(2,4-Difluorophenylsulfonamido)-N-(1-methylpyrrolidin-3-yl)-2′-oxospiro[cyclobutane-1,3′-indoline]-7′-carboxamide]	< 600 nM
CN1CCC(N(C)C(=O)c2cc(NS(=O)(=O)c3ccc(F)cc3F)cc3c2NC(=O)C32CCC2)CC1 [Compound 53, 5′-(2,4-Difluorophenylsulfonamido)-N-methyl-N-(1-methylpiperidin-4-yl)-2′-oxospiro[cyclobutane-1,3′-indoline]-7′-carboxamide]	> 1000 nM
CCN1CCC(NC(=O)c2cc(NS(=O)(=O)c3ccc(F)cc3F)cc3c2NC(=O)C32CCC2)CC1 [Compound 54, 5′-(2,4-Difluorophenylsulfonamido)-N-(1-ethylpiperidin-4-yl)-2′-oxospiro[cyclobutane-1,3′-indoline]-7′-carboxamide]	< 600 nM
O=C(NC1CCCCC1)c1cc(NS(=O)(=O)c2ccc(F)cc2F)cc2c1NC(=O)C21CCC1 [Compound 55, N-cyclohexyl-5′-(2,4-difluorophenylsulfonamido)-2′-oxospiro[cyclobutane-1,3′-indoline]-7′-carboxamide]	600 to 1000 nM
